Data as given in ChEMBL document CHEMBL1201862, “PubChem BioAssay data set” (2004).
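1) Cells in 96-well plates. 2) Compound, 48 h, 5 concentrations. 3) Linear interpolation between surrounding doses. 4) Unreached endpoint = highest concentration. Abbreviation: GI50, concentration required for 50% inhibition of growth.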 Activity calls are given as the source filed them. Rule as the data show it: active = GI50 up to about 1.1 µM and inactive = higher.

Legend:
Test in all cases: NCI anticancer screen, dose series, 48 h
DLD-1 = tested on: DLD-1
DMS-273 = tested on: DMS-273
HOP-18 = tested on: HOP-18
LXFL 529 = tested on: LXFL 529
M19-MEL = tested on: M19-MEL
RXF 631 = tested on: RXF 631
SNB-78 = tested on: SNB-78
XF498 = tested on: XF498
Hs-578T = tested on: Hs-578T

Structure (SMILES): CC(C)=CC(=O)N1CCN(C(=O)C=C(C)C)CC1
- GI50 (DLD-1): > 100 µM (inactive)
- GI50 (DMS-273): > 100 µM (inactive)
- GI50 (HOP-18): > 100 µM (inactive)
- GI50 (LXFL 529): > 100 µM (inactive)
- GI50 (M19-MEL): > 100 µM (inactive)
- GI50 (RXF 631): > 100 µM (inactive)
- GI50 (SNB-78): > 100 µM (inactive)
- GI50 (XF498): > 100 µM (inactive)

Structure (SMILES): O=C1C2C3CC(C4C5C=CC(C5)C34)C2C2C3CC(C12)C1C2C=CC(C2)C31 (centres undefined)
- GI50 (DLD-1): > 100 µM (inactive)
- GI50 (DMS-273): > 100 µM (inactive)
- GI50 (HOP-18): > 100 µM (inactive)
- GI50 (LXFL 529): > 100 µM (inactive)
- GI50 (M19-MEL): > 100 µM (inactive)
- GI50 (RXF 631): > 100 µM (inactive)
- GI50 (SNB-78): > 100 µM (inactive)
- GI50 (XF498): > 100 µM (inactive)

Structure (SMILES): CC(=O)NNc1nc(C)c(C(/C=C/c2ccc(Cl)cc2)=N\NS(=O)(=O)c2ccc(C)cc2)s1
- GI50 (DLD-1): > 100 µM (inactive)
- GI50 (DMS-273): > 100 µM (inactive)
- GI50 (HOP-18): > 100 µM (inactive)
- GI50 (LXFL 529): > 100 µM (inactive)
- GI50 (M19-MEL): > 100 µM (inactive)
- GI50 (RXF 631): > 100 µM (inactive)
- GI50 (SNB-78): > 100 µM (inactive)
- GI50 (XF498): > 60.4 µM (inactive)

Structure (SMILES): NC(=O)c1cc([N+](=O)[O-])cc([N+](=O)[O-])c1 [NITROMIDE]
- GI50 (DLD-1): > 100 µM (inactive)
- GI50 (DMS-273): > 100 µM (inactive)
- GI50 (LXFL 529): > 100 µM (inactive)
- GI50 (M19-MEL): 22.4 µM (inactive)
- GI50 (RXF 631): > 100 µM (inactive)

Structure (SMILES): CC(CN1CCN(CC(C)Nc2ccnc3cc(Cl)ccc23)CC1)Nc1ccnc2cc(Cl)ccc12 (centres undefined)
- GI50 (DLD-1): 16.9 µM (inactive)
- GI50 (DMS-273): 16.3 µM (inactive)
- GI50 (LXFL 529): 16.6 µM (inactive)
- GI50 (M19-MEL): 21.8 µM (inactive)
- GI50 (RXF 631): 12.4 µM (inactive)
- GI50 (SNB-78): 21.1 µM (inactive)
- GI50 (XF498): 23.3 µM (inactive)

Structure (SMILES): O=[N+]([O-])c1ccc(C(Cl)C(Cl)c2ccc(C(Cl)C(Cl)c3ccc([N+](=O)[O-])cc3[N+](=O)[O-])cc2)c([N+](=O)[O-])c1 (centres undefined)
- GI50 (DLD-1): 1.78 µM (inactive)
- GI50 (DMS-273): 1.47 µM (inactive)
- GI50 (LXFL 529): 0.92 µM (active)
- GI50 (M19-MEL): 1.33 µM (inactive)
- GI50 (RXF 631): 1.57 µM (inactive)
- GI50 (SNB-78): 3.44 µM (inactive)
- GI50 (XF498): 0.184 µM (active)

Structure (SMILES): Oc1cc(-c2ccccn2)nc2cc(F)ccc12
- GI50 (DLD-1): 81.8 µM (inactive)
- GI50 (HOP-18): 40.4 µM (inactive)
- GI50 (LXFL 529): > 100 µM (inactive)
- GI50 (M19-MEL): 56.6 µM (inactive)
- GI50 (RXF 631): > 100 µM (inactive)
- GI50 (SNB-78): > 100 µM (inactive)

Structure (SMILES): CCOC(=O)CCc1c(C)c2c(OC)cc(OC)cc2oc1=O
- GI50 (DLD-1): 91.6 µM (inactive)
- GI50 (DMS-273): 41.8 µM (inactive)
- GI50 (HOP-18): 32.1 µM (inactive)
- GI50 (LXFL 529): 62.5 µM (inactive)
- GI50 (M19-MEL): > 100 µM (inactive)
- GI50 (SNB-78): > 100 µM (inactive)
- GI50 (XF498): 35.2 µM (inactive)

Structure (SMILES): COC(=O)CCC(NC(=S)N/N=C(\C)c1nccs1)C(=O)OC (centres undefined)
- GI50 (DLD-1): 40.6 µM (inactive)
- GI50 (HOP-18): 21.2 µM (inactive)
- GI50 (LXFL 529): 60.4 µM (inactive)
- GI50 (M19-MEL): 50.5 µM (inactive)
- GI50 (RXF 631): 58.2 µM (inactive)
- GI50 (SNB-78): > 100 µM (inactive)
- GI50 (XF498): > 100 µM (inactive)

Structure (SMILES): CC1=C(C(=O)O)N2C(=O)[C@@H](NC(=O)C(c3ccc(O)cc3)N3CSC(=S)N(C(C)C)C3)C2SC1 (some centres undefined)
- GI50 (DLD-1): > 100 µM (inactive)
- GI50 (DMS-273): > 100 µM (inactive)
- GI50 (HOP-18): > 100 µM (inactive)
- GI50 (LXFL 529): > 100 µM (inactive)
- GI50 (M19-MEL): > 100 µM (inactive)
- GI50 (SNB-78): > 100 µM (inactive)
- GI50 (XF498): > 100 µM (inactive)

Structure (SMILES): COC(=O)[C@]1(C)CCC[C@@]2(C)C1CCC1=CC3(C(C)C)CCC12OO3 (some centres undefined)
- GI50 (DLD-1): 50.1 µM (inactive)
- GI50 (LXFL 529): 31.4 µM (inactive)
- GI50 (M19-MEL): 32.2 µM (inactive)
- GI50 (RXF 631): > 100 µM (inactive)
- GI50 (SNB-78): 51.3 µM (inactive)

Structure (SMILES): Clc1cc2ns[s+]c2cc1Cl
- GI50 (DLD-1): 13.1 µM (inactive)
- GI50 (DMS-273): 32.3 µM (inactive)
- GI50 (LXFL 529): 4.72 µM (inactive)
- GI50 (M19-MEL): 61.4 µM (inactive)
- GI50 (RXF 631): 60.3 µM (inactive)
- GI50 (SNB-78): > 100 µM (inactive)
- GI50 (XF498): > 83.6 µM (inactive)

Structure (SMILES): N#C/C(=C\c1cccc(O)c1)C(N)=O
- GI50 (DLD-1): > 100 µM (inactive)
- GI50 (DMS-273): > 100 µM (inactive)
- GI50 (LXFL 529): > 100 µM (inactive)
- GI50 (M19-MEL): > 100 µM (inactive)
- GI50 (RXF 631): > 100 µM (inactive)
- GI50 (SNB-78): > 100 µM (inactive)
- GI50 (XF498): > 100 µM (inactive)

Structure (SMILES): O=C(c1ccccc1)c1cccc(C(=O)c2ccccc2)c1
- GI50 (DLD-1): > 100 µM (inactive)
- GI50 (DMS-273): > 100 µM (inactive)
- GI50 (HOP-18): > 100 µM (inactive)
- GI50 (LXFL 529): 74.1 µM (inactive)
- GI50 (M19-MEL): > 100 µM (inactive)
- GI50 (SNB-78): > 100 µM (inactive)
- GI50 (XF498): > 100 µM (inactive)

Structure (SMILES): CC(C)[C@H](CCl)NC(=O)c1cccc(C(=O)N[C@H](CCl)C(C)C)n1 (stereo in doubt)
- GI50 (DLD-1): > 100 µM (inactive)
- GI50 (DMS-273): > 100 µM (inactive)
- GI50 (LXFL 529): > 100 µM (inactive)
- GI50 (M19-MEL): > 100 µM (inactive)
- GI50 (RXF 631): > 100 µM (inactive)
- GI50 (SNB-78): > 100 µM (inactive)
- GI50 (XF498): > 100 µM (inactive)

Structure (SMILES): Cc1c(CCO)c(O)n2c(nc3ccccc32)c1C#N
- GI50 (DLD-1): > 100 µM (inactive)
- GI50 (DMS-273): 63.2 µM (inactive)
- GI50 (HOP-18): 47.5 µM (inactive)
- GI50 (LXFL 529): 36.6 µM (inactive)
- GI50 (M19-MEL): > 100 µM (inactive)
- GI50 (SNB-78): 61 µM (inactive)
- GI50 (XF498): > 100 µM (inactive)

Structure (SMILES): CCCCCCCCCCCCOCCCOP(=O)([O-])OCC[N+](C)(C)C
- GI50 (DLD-1): 27.9 µM (inactive)
- GI50 (DMS-273): 12.9 µM (inactive)
- GI50 (HOP-18): 32.7 µM (inactive)
- GI50 (Hs-578T): 22.4 µM (inactive)
- GI50 (M19-MEL): 28.2 µM (inactive)
- GI50 (SNB-78): 25.2 µM (inactive)
- GI50 (XF498): 37.7 µM (inactive)

Structure (SMILES): C[n+]1c2ccccc2c(NCC(=O)O)c2ccccc21
- GI50 (DLD-1): > 100 µM (inactive)
- GI50 (DMS-273): > 100 µM (inactive)
- GI50 (HOP-18): > 100 µM (inactive)
- GI50 (LXFL 529): > 100 µM (inactive)
- GI50 (M19-MEL): > 100 µM (inactive)
- GI50 (SNB-78): > 100 µM (inactive)

Structure (SMILES): Cc1ccccc1NC(=O)c1nc(S)nc(N)c1-c1ccccc1C
- GI50 (DLD-1): > 100 µM (inactive)
- GI50 (DMS-273): > 100 µM (inactive)
- GI50 (HOP-18): > 100 µM (inactive)
- GI50 (LXFL 529): > 100 µM (inactive)
- GI50 (M19-MEL): > 100 µM (inactive)
- GI50 (SNB-78): > 100 µM (inactive)
